Source: patent US20140045805A1, “Fragrance Compositions and Other Compositions Which Contain Naturally Occurring Substances Found in Corals” (priority 2007, published 2014)

Tested on: healthy volunteers (men and women)
Experiment: Physiologic parameters (electrophysiology) after nasal exposure
Format: in vivo, human
Design: Mean MA, BT (body temperature) / Mean MA, EMG (electromyogram) / Mean MA, BR (blinking reflex) / Mean MA, EEG-A (alpha cortical activity) / Mean MA, EEG-B (beta cortical activity) / Mean MA, EEG-T (theta cortical activity) / Mean MA, EDA (electrodermal activity): unit not given here
Conditions: for Mean MA, BR (blinking reflex) / Mean MA, BT (body temperature) / Mean MA, EDA (electrodermal activity) / Mean MA, EEG-A (alpha cortical activity) / Mean MA, EEG-B (beta cortical activity) / Mean MA, EEG-T (theta cortical activity) / Mean MA, EMG (electromyogram) / Mean MA, HR (heart rate) / Mean MA, RR (respiration rate): 12 ng/20 min airborne nasal; for % Change MA, BR (blinking reflex) / % Change MA, EDA (electrodermal activity) / % Change MA, EEG-A (alpha cortical activity) / % Change MA, EEG-B (beta cortical activity) / % Change MA, EEG-T (theta cortical activity) / % Change MA, EMG (electromyogram) / % Change MA, HR (heart rate) / % Change MA, RR (respiration rate): 12 ng, vs baseline-2
Procedure: We assessed the resulting physiological responses and behavioral changes induced by nasal exposure to 12 ng pregna-5,20-dien-3β-ol in 76 volunteers (38 women and 38 men), age 18 to 46 (Table 1) using a placebo-controlled, single blind and crossover study design. The items of the modified DABS-70 were rearranged during consecutive administrations, in order to minimize the effect of learning.
Upon completion of the first DABS-70, each subject was invited to rest supine in a comfortable medical bed in a quiet room and several non-invasive electrode leads and transducers were positioned on the surface skin of the arms, face and skull to help measure physiologic parameters (FIG. 4). A conventional grounding electrode and a reference electrode lead were positioned on the surface skin of the mastoid process and the right ear lobe respectively, with the aid of hypoallergenic conductive paste. Other non-invasive standard electrode-leads and transducers were used for recording the following physiologic parameters: • Electrocardiogram (EKG), standard bipolar I. • Electropneumogram (EPG), strain gauge around lower thorax. • Electrodermal activity (EDA), palm surface of 3rd and 4th finger (right hand). • Blinking reflex (BR), upper and lower left eye-lid. • Electromyogram (EMG), bilaterally in chin area. • Body temperature (BT), mini-thermistor probe in external ear canal. • Electroencephalogram (EEG), CzA2 and T4A2 from the […] International EEG electrode placement chart.
During the course of a recording session, physiologic readings were performed in four consecutive instances, before and after randomized administration of active substance or control (FIG. 4): PHYS-1 recording, starting 5 minutes before the first randomized dosing; PHYS-2, starting 15 minutes after administration of the first randomized dosing; PHYS-3, starting 5 minutes before administration of the second randomized dosing; and PHYS-4 starting 15 minutes after administration of the second randomized dosing.
All physiological recordings were pre-amplified and digitized (Biopac Systems), and continuously computer monitored and stored (Macintosh G3), for further off-line processing and analysis (for a detailed explanation see Monti-Bloch et al, 1994, 1998).
Active substance (pregna-5,20-dien-3β-ol) and control were freshly prepared on 0.7 cm×10 cm perfumery grade smelling strips 24 hours before the experiment. A perfumery grade smelling strip was positioned on the upper lip of the subject for delivery of control or active substance to the nasal passages for a period of 20 minutes. Each breath carried vapors of pregna-5,20-dien-3β-ol or control (air) from the paper strip to the nasal passages.
Perfumery grade smelling strips containing either pregna-5,20-dien-3β-ol or control were prepared as follows: 100 μl of stock solution containing 100 mg pregna-5,20-dien-3β-ol/10 mL ethanol (95%) was added to a clean paper strip. Ethanol was allowed to evaporate overnight in a clean fume hood, and 1 mg of dry crystals of pregna-5,20-dien-3β-ol remained embedded in the dried perfumery grade smelling strip. Control was a perfumery grade smelling strip prepared following the same procedure but the solution was devoid of active substance.
The following assumptions were used to calculate the quantity of pregna-5,20-dien-3β-ol delivered to the nasal passages during a study session: a) the quantity of pregna-5,20-dien-3β-ol arriving to the nasal passages with each breath is ≈40 pg (determined as described below); b) the average respiratory rate at rest in men and women is ≈15 breaths per minute; and c) the subject was exposed to pregna-5,20-dien-3β-ol for 20 min during the entire study session. The total calculated quantity of pregna-5,20-dien-3β-ol delivered to the nasal passages over 20 min (exposure during the study session) was calculated as follows: 40 pg/breath×15 breaths/min×20 min=12000 pg=12 ng. […]

[1] = men, listed as Pregna-5,20-dien-3β-ol
[2] = women, listed as Pregna-5,20-dien-3β-ol

C=C[C@H]1CC[C@H]2[C@@H]3CC=C4C[C@@H](O)CC[C@]4(C)[C@H]3CC[C@]12C [pregna-5,20-dien-3β-ol, Pregna-5,20-dien-3β-ol]
Mean MA, BR (blinking reflex) (men): 25.970
Mean MA, BT (body temperature) (men): −0.011
Mean MA, EDA (electrodermal activity) (men): 3.467
Mean MA, EEG-A (alpha cortical activity) (men): 29.613
Mean MA, EEG-B (beta cortical activity) (men): 57.853
Mean MA, EEG-T (theta cortical activity) (men): 17.630
Mean MA, EMG (electromyogram) (men): 20.067
Mean MA, HR (heart rate) (men): 66.323
Mean MA, RR (respiration rate) (men): 13.133
% Change MA, BR (blinking reflex) (men): −22.392%
% Change MA, EDA (electrodermal activity) (men): 44.458%
% Change MA, EEG-A (alpha cortical activity) (men): 2.798%
% Change MA, EEG-B (beta cortical activity) (men): −13.691%
% Change MA, EEG-T (theta cortical activity) (men): 14.036%
% Change MA, EMG (electromyogram) (men): 64.524%
% Change MA, HR (heart rate) (men): −2.609%
% Change MA, RR (respiration rate) (men): −19.097%
% Change MA, EEG-A (alpha cortical activity) [1]: did not have a significant effect
% Change MA, EEG-B (beta cortical activity) [1]: did not have a significant effect
% Change MA, HR (heart rate) [1]: −2.6%
Mean MA, BR (blinking reflex) (women): 28.483
Mean MA, BT (body temperature) (women): 0.064
Mean MA, EDA (electrodermal activity) (women): 3.379
Mean MA, EEG-A (alpha cortical activity) (women): 27.724
Mean MA, EEG-B (beta cortical activity) (women): 61.069
Mean MA, EEG-T (theta cortical activity) (women): 17.897
Mean MA, EMG (electromyogram) (women): 25.276
Mean MA, HR (heart rate) (women): 64.828
Mean MA, RR (respiration rate) (women): 13.379
% Change MA, BR (blinking reflex) (women): −31.859%
% Change MA, EDA (electrodermal activity) (women): 71.784%
% Change MA, EEG-A (alpha cortical activity) (women): −14.871%
% Change MA, EEG-B (beta cortical activity) (women): −1.023%
% Change MA, EEG-T (theta cortical activity) (women): 24.001%
% Change MA, EMG (electromyogram) (women): 55.545%
% Change MA, HR (heart rate) (women): −3.000%
% Change MA, RR (respiration rate) (women): −16.030%
% Change MA, EEG-A (alpha cortical activity) [2]: did not have a significant effect
% Change MA, EEG-B (beta cortical activity) [2]: did not have a significant effect
% Change MA, HR (heart rate) [2]: −3.0%
% Change MA, RR (respiration rate) [2]: −16.03%
